Like-named read-outs stand apart in the source and are kept apart here.
Test system: IL-1β production in PMA-differentiated THP-1 cells
Assay: IL-1β production in PMA-differentiated THP-1 cells stimulated with gramicidin (hTHP-1 assay containing 2% fetal bovine serum; Procedures 1-3)
Format: cell-based, human
Settings: read-out: hTHP-1 IC50 (Average IC50 of compounds in hTHP-1 assay)
Procedure: The following protocol is suitable for testing the activity of the compounds disclosed herein.
Procedure 1: IL-1β Production in PMA-Differentiated THP-1 Cells Stimulated with Gramicidin
THP-1 cells were purchased from the American Type Culture Collection and sub-cultured according to instructions from the supplier. Cells were cultured in complete RPMI 1640 (containing 10% heat inactivated FBS, penicillin (100 units/ml) and streptomycin (100 μg/ml)), and maintained in log phase prior to experimental setup. Prior to the experiment, compounds were dissolved in dimethyl sulfoxide (DMSO) to generate a 30 mM stock. The compound stock was first pre-diluted in DMSO to 3, 0.34, 0.042 and 0.0083 mM intermediate concentrations and subsequently spotted using Echo550 liquid handler into an empty 384-well assay plate to achieve desired final concentration (e.g. 100, 33, 11, 3.7, 1.2, 0.41, 0.14, 0.046, 0.015, 0.0051, 0.0017 μM). DMSO was backfilled in the plate to achieve a final DMSO assay concentration of 0.37%. The plate was then sealed and stored at room temperature until required.
THP-1 cells were treated with PMA (Phorbol 12-myristate 13-acetate) (20 ng/ml) for 16-18 hours. On the day of the experiment the media was removed and adherent cells were detached with trypsin for 5 minutes. Cells were then harvested, washed with complete RPMI 1640, spun down, and resuspended in RPMI 1640 (containing 2% heat inactivated FBS, penicillin (100 units/ml) and streptomycin (100 μg/ml). The cells were plated in the 384-well assay plate containing the spotted compounds at a density of 50,000 cells/well (final assay volume 50 μl). Cells were incubated with compounds for 1 hour and then stimulated with gramicidin (5 μM) (Enzo) for 2 hours. Plates were then centrifuged at 340 g for 5 min. Cell free supernatant (40 μL) was collected using a 96-channel PlateMaster (Gilson) and the production of IL-1β was evaluated by HTRF (cisbio). The plates were incubated for 18 h at 4° C. and read using the preset HTRF program (donor emission at 620 nm, acceptor emission at 668 nm) of the SpectraMax i3x spectrophotometer (Molecular Devices, software SoftMax 6). A vehicle only control and a dose titration of CRID3 (100-0.0017 μM) were run concurrently with each experiment.
Procedure 2: IL-1β Production in PMA-Differentiated THP-1 Cells Stimulated with Gramicidin
THP-1 cells were purchased from the American Type Culture Collection and sub-cultured according to instructions from the supplier. Prior to experiments, cells were cultured in complete RPMI 1640 (containing 10% heat inactivated FBS, penicillin (100 units/ml) and streptomycin (100 μg/ml)), and maintained in log phase prior to experimental setup. Prior to the experiment THP-1 were treated with PMA (Phorbol 12-myristate 13-acetate) (20 ng/ml) for 16-18 hours. Compounds were dissolved in dimethyl sulfoxide (DMSO) to generate a 30 mM stock. On the day of the experiment the media was removed and adherent cells were detached with trypsin for 5 minutes. Cells were then harvested, washed with complete RPMI 1640, spun down, resuspended in RPMI 1640 (containing 2% heat inactivated FBS, penicillin (100 units/ml) and streptomycin (100 μg/ml). The cells were plated in a 384-well plate at a density of 50,000 cells/well (final assay volume 50 μl). Compounds were first dissolved in assay medium to obtain a 5× top concentration of 500 μM. 10 step dilutions (1:3) were then undertaken in assay medium containing 1.67% DMSO. 5× compound solutions were added to the culture medium to achieve desired final concentration (e.g. 100, 33, 11, 3.7, 1.2, 0.41, 0.14, 0.046, 0.015, 0.0051, 0.0017 μM). Final DMSO concentration was at 0.37%. Cells were incubated with compounds for 1 hour and then stimulated with gramicidin (5 μM) (Enzo) for 2 hours. Plates were then centrifuged at 340 g for 5 min. Cell free supernatant (40 μL) was collected using a 96-channel PlateMaster (Gilson) and the production of IL-1β was evaluated by HTRF (cisbio). […]

[1] = Homo sapiens, THP-1, hTHP-1 assay containing 2% fetal bovine serum, class symbols
[2] = Homo sapiens, THP-1, hTHP-1 assay containing 2% fetal bovine serum, given as numeric bound
[3] = hTHP-1 assay containing 2% fetal bovine serum, class symbols

| SMILES | IC50 [1] [nM] | IC50 [2] [nM] | also measured |
| --- | --- | --- | --- |
| CC(C)c1cc(F)cc(C(C)C)c1CC(=O)NS(=N)(=O)c1ccc(C(C)(C)O)cc1 (single isomer, unassigned) [Example 2] | 1000 to 5000 |  |  |
| CC(C)c1cc(F)cc(C(C)C)c1CC(=O)NS(=N)(=O)c1ccc(C(C)(C)O)cc1 (single isomer, unassigned) [Example 3] |  | > 30000 |  |
| CC(C)(O)c1cnc(S(=N)(=O)NC(=O)Cc2c3c(cc4c2CCC4)CCC3)s1 (single isomer, unassigned) [Example 5] |  | > 30000 |  |
| CC(C)(O)c1cnc(S(=N)(=O)NC(=O)Cc2c3c(cc4c2CCC4)CCC3)s1 (single isomer, unassigned) [Example 6] | 1000 to 5000 |  |  |
| CC(C)c1cc(F)cc(C(C)C)c1CC(=O)N[S@](=N)(=O)c1ncc(C(C)(C)O)s1 (single isomer, unassigned) [Example 8] | 1000 to 5000 |  |  |
| CC(C)c1cc(F)cc(C(C)C)c1CC(=O)N[S@@](=N)(=O)c1ncc(C(C)(C)O)s1 (single isomer, unassigned) [Example 9] | 200 to 1000 |  |  |
| CC(C)c1cc(F)cc(C2CC2)c1CC(=O)N=S(N)(=O)c1ccc(CN(C)C)cc1 (single isomer, unassigned) [Example 46, (S)- or (R)-2-(2-cyclopropyl-4-fluoro-6-isopropylphenyl)-N-(4-((dimethylamino)methyl)phenyl-sulfonimidoyl)acetamide] |  | > 30000 |  |
| CC(C)c1cc(F)cc(C2CC2)c1CC(=O)N=S(N)(=O)c1ccc(CN(C)C)cc1 (single isomer, unassigned) [Example 47, (R)- or (S)-2-(2-cyclopropyl-4-fluoro-6-isopropylphenyl)-N-(4-((dimethylamino)methyl)phenyl-sulfonimidoyl)acetamide] | 200 to 1000 |  |  |
| CC(C)c1cc(F)cc(C(C)C)c1CC(=O)N=S(N)(=O)c1sc(C(C)(C)O)cc1F (single isomer, unassigned) [Example 50, (S)- or (R)-2-(4-fluoro-2,6-diisopropylphenyl)-N-(3-fluoro-5-(2-hydroxypropan-2-yl)thiophen-2-ylsulfonimidoyl)acetamide] |  |  | IC50 [3]: 8 to 40 nM |
| CC(C)c1c(F)c(C#N)cc(C2CC2)c1CC(=O)N=S(N)(=O)c1sc(C(C)(C)O)cc1F (single isomer, unassigned) [Example 54, (S)- or (R)-2-(4-cyano-6-cyclopropyl-3-fluoro-2-isopropylphenyl)-N-(3-fluoro-5-(2-hydroxypropan-2-yl)thiophen-2-ylsulfonimidoyl)acetamide] |  |  | IC50 [3]: 8 to 40 nM |
| CC(C)c1cc(Cl)c(F)c(C2CC2)c1CC(=O)N=S(N)(=O)c1sc(C(C)(C)O)cc1F (single isomer, unassigned) [Example 56, (S)- or (R)-2-(4-chloro-2-cyclopropyl-3-fluoro-6-isopropylphenyl)-N-(3-fluoro-5-(2-hydroxypropan-2-yl)thiophen-2-ylsulfonimidoyl)acetamide] |  |  | IC50 [3]: 200 to 1000 nM |
| CCc1cc(C#N)cc(C(C)C)c1CC(=O)N=S(N)(=O)c1ccc(CN(C)C)cc1 (single isomer, unassigned) [Example 58, (S)- or (R)-2-(4-cyano-2-ethyl-6-isopropylphenyl)-N-(4-((dimethylamino)methyl)phenyl-sulfonimidoyl)acetamide] |  | > 30000 |  |
| CCc1cc(C#N)cc(C(C)C)c1CC(=O)N=S(N)(=O)c1ccc(CN(C)C)cc1 (single isomer, unassigned) [Example 59, (R)- or (S)-2-(4-cyano-2-ethyl-6-isopropylphenyl)-N-(4-((dimethylamino)methyl)phenyl-sulfonimidoyl)acetamide] | 5000 to 30000 |  |  |
| CC(C)c1cc(C#N)cc(C2CC2)c1CC(=O)N=S(N)(=O)c1ccc(CN(C)C)cc1F (single isomer, unassigned) [Example 62, (S)- or (R)-2-(4-cyano-2-cyclopropyl-6-isopropylphenyl)-N-(4-((dimethylamino)methyl)-2-fluorophenylsulfonimidoyl) acetamide] | 1000 to 5000 |  |  |
| CC(C)c1cc(C#N)cc(C2CC2)c1CC(=O)N=S(N)(=O)c1ccc(CN(C)C)cc1F (single isomer, unassigned) [Example 63, (R)- or (S)-2-(4-cyano-2-cyclopropyl-6-isopropylphenyl)-N-(4-((dimethylamino)methyl)-2-fluorophenylsulfonimidoyl) acetamide] |  | > 30000 |  |
| CC(C)c1cc(C#N)cc(C(C)C)c1CC(=O)N=S(N)(=O)c1sc(C(C)(C)O)nc1CO (single isomer, unassigned) [Example 64, (S)- or (R)-2-(4-cyano-2,6-diisopropylphenyl)-N-(4-(hydroxymethyl)-2-(2-hydroxypropan-2-yl)thiazol-5-ylsulfonimidoyl)acetamide] |  |  | IC50 [3]: 200 to 1000 nM |
| CC(C)(O)c1nc(CO)c(S(N)(=O)=NC(=O)Cc2c3c(cc4c2CCC4)CCC3)s1 (single isomer, unassigned) [Example 66, (S)- or (R)-2-(1,2,3,5,6,7-hexahydros-indacen-4-yl)-N-(4-(hydroxymethyl)-2-(2-hydroxypropan-2-yl)thiazol-5-ylsulfonimidoyl)acetamide] | 200 to 1000 |  |  |
| CC(C)(O)c1nc(CO)c(S(N)(=O)=NC(=O)Cc2c3c(cc4c2CCC4)CCC3)s1 (single isomer, unassigned) [Example 67, (R)- or (S)-2-(1,2,3,5,6,7-hexahydros-indacen-4-yl)-N-(4-(hydroxymethyl)-2-(2-hydroxypropan-2-yl)thiazol-5-ylsulfonimidoyl)acetamide] |  | > 30000 |  |
| COCc1cc(C(C)C)c(CC(=O)N=S(N)(=O)c2sc(C(C)(C)O)nc2CO)c(C(C)C)c1 (single isomer, unassigned) [Example 68, (S)- or (R)-2-(2,6-diisopropyl-4-(methoxymethyl)phenyl)-N-(4-(hydroxymethyl)-2-(2-hydroxypropan-2-yl)thiazol-5-ylsulfonimidoyl)acetamide] |  |  | IC50 [3]: 200 to 1000 nM |
| CC(C)c1cc(C#N)cc(C(C)C)c1CC(=O)N=S(N)(=O)c1ccc(CN(C)C)cc1 (single isomer, unassigned) [Example 72, (S)- or (R)-2-(4-cyano-2,6-diisopropylphenyl)-N-(4-((dimethylamino)methyl)phenyl-sulfonimidoyl)acetamide] | 1000 to 5000 |  |  |
| CC(C)c1cc(C#N)cc(C(C)C)c1CC(=O)N=S(N)(=O)c1ccc(CN(C)C)cc1 (single isomer, unassigned) [Example 73, (R)- or (S)-2-(4-cyano-2,6-diisopropylphenyl)-N-(4-((dimethylamino)methyl)phenyl-sulfonimidoyl)acetamide] |  | > 30000 |  |
| CC(C)c1cc(C#N)cc(C2CC2)c1CC(=O)N=S(N)(=O)c1ccc(CN(C)C)cc1 (single isomer, unassigned) [Example 74, (S)- or (R)-2-(4-cyano-2-cyclopropyl-6-isopropylphenyl)-N-(4-((dimethylamino)methyl)phenyl-sulfonimidoyl)acetamide] |  | > 30000 |  |
| CC(C)c1cc(C#N)cc(C2CC2)c1CC(=O)N=S(N)(=O)c1ccc(CN(C)C)cc1 (single isomer, unassigned) [Example 75, (R)- or (S)-2-(4-cyano-2-cyclopropyl-6-isopropylphenyl)-N-(4-((dimethylamino)methyl)phenyl-sulfonimidoyl)acetamide] | 1000 to 5000 |  |  |
